{
  "source": "patent US8673347B2",
  "about": "(Creabilis Therapeutics S.p.A., priority 2005, dated 2014)",
  "key": {"[1]": {"test": "PK study in mice, single dermal administration", "format": "in vivo", "procedure": "(§1) At each sampling time, approximately 0.4 mL blood samples were collected from the ventral aorta of each animal using an insulin syringe, under deep ether anesthesia, and transferred into polyethylene Eppendorf tubes containing 50 μL of 5% EDTA water solution to prevent blood clotting. Blood samples were kept in ice until centrifugation at 1400 g for 5 min. in a refrigerated centrifuge (2-4° C.). From each tube plasma samples were then recovered, put in new Eppendorf tubes and frozen at −20° C. which until the HPLC analysis.\nComputer fitting of the data from each experimental group was then performed by NCOMP version 3.1 program (P. B. Laub et al., Journal of Pharmaceutical Sciences, 1996, 85(4):393-395). Values for area under the plasma concentration-time profile, T1/2, Tmax, Cmax, etc. were calculated by conventional formulas previously described (Gibaldi et al., Pharmacokinetics, 1982, Marcel Dekker, Inc., New York)."}, "[2]": {"test": "PK study in mice, repeated dermal administration", "format": "in vivo", "details": "repeated dermal QD for 5 days, 1.03 mg/kg (about 2 μmol/kg), t = 3 h after last administration", "procedure": "as §1"}, "human keratinocytes": {"system": "human keratinocytes", "test": "MTT-assay, antiproliferative activity on keratinocytes", "format": "cell-based", "procedure": "A metabolic MTT-assay was performed as test of the cellular vitality. The MTT-assay was performed using a well known and validated protocol, whereby the results are quantified through a spectrophotometric lecture, the number of living cells being directly proportional to the quantity of the formazan product formed as reduction product of MTT ([3-(4,5-dimethylthiazol-2-yl)-2,5-diphenyltetrazoliumbromid]) (Mosmann T., Rapid colorimetric assay for cellular growth and survival: Application to proliferation and cytotoxicity assays. J. Immunol. Methods. 1983, Dec. 16, 65(1-2):55-63). In the present study, the MTT-assay was performed on subconfluent cultures of keratinocytes seeded in 96-well plates for cellular culture (8000 cells/well). After the cells have been exposed to the substance which has to be analyzed, the cells are incubated for 4 hours at 37° C. with MTT (0.05%) in serum-free keratinocyte growth medium (KGM Clonetics Corp. San Diego, Calif., USA). After solubilisation of the cells with detergents, the formation of the dyestuff formazan is detected using a spectrophotometer for multi-well plate at 540 nm. The results are given as optical density unit (OD). […]"}, "LPS-induced endotoxemia": {"system": "LPS-induced endotoxemia", "test": "Plasma cytokines in mice after LPS-induced endotoxemia", "format": "in vivo", "details": "parallel experiment, treated before LPS; versus vehicle", "procedure": "A study was performed with the purpose to quantitatively determine a panel of 24 cytokines in the plasma of mice at different time points after LPS-induced endotoxemia and to compare the profiles obtained with those of CT327 pre-treated endotoxemic mice.\nThe animals were divided into two experimental groups (55 mice/group) that were treated following this schedule:\nAt time 0 both groups received a dose of LPS corresponding to 4 mg/kg, i.p.\nThe “treated” experimental group received a single dose of CT327 corresponding to 105.56 mg/kg, i.p. This dose was administered 15 minutes before LPS endotoxemia induction (time 0). At the same time the “control” group received an equivalent volume of vehicle solution.\nEach experimental group was divided into 11 sub-groups with 5 mice/sub-group. Each sub-group was sacrificed at different time points and blood samples collected.\nTime points for blood sample collection were: • Time: time 0 (basal); before LPS treatment • Time: +30 minutes; after LPS treatment • Time: +1 hours; after LPS treatment • Time: +2 hours; after LPS treatment • Time: +3 hours; after LPS treatment • Time: +6 hours; after LPS treatment • Time: +12 hours; after LPS treatment • Time: +18 hours; after LPS treatment • Time: +24 hours; after LPS treatment • Time: +48 hours; after LPS treatment • Time: +72 hours; after LPS treatment\nBlood samples were collected in sodium citrate tubes (100 μl sodium citrate 0.1 M/900 μl of blood) and centrifuged at 1000 g at 4° C. for 10 minutes. Plasma samples were collected and 50 μl/sample were frozen at −80° C. until testing for multiple cytokines profiling. The samples were analyzed in double through the Bio-Plex System (Bio-Rad) by using the 23-plex panel at the Dept. of Genetics, Biology and Biochemistry, Torino University, led by Prof. Silengo. Plasma levels of the following cytokines were determined: IL-1a, IL-1b, IL-2, IL-3, IL-4, IL-5, IL-6, IL-10, IL-12(p40), IL-12(p70), IL-17, G-CSF, GM-CSF, IFN-γ, KC, MIP-1-α, RANTES, TNF-α, IL-9, IL-13, eotaxin, MCP-1, MIP-1-α."}, "[3]": {"details": "male, Balb/c, mouse, topical or ocular, 10 umol/kg, single dermal, plasma"}},
  "note": "Like-named read-outs stand apart in the source and are kept apart here.",
  "data": [
    {"smiles": "COC(=O)[C@]1(O)C[C@@H]2O[C@@]1(C)n1c3ccccc3c3c4c(c5c6ccccc6n2c5c31)C(=O)NC4", "note": "[Compound K-252a, K-252a]", "values": [
      {"measurement": "half-life", "setting": "[1]; male, Balb/c, mouse, plasma, topical or ocular, 5.075 mg/kg, single dermal administration, read-out: half-life", "result": 63, "unit": "min"},
      {"measurement": "concentration at 3 h", "setting": "[1]; male, Balb/c, mouse, plasma, topical, single dermal administration at same dosage (2 μmol/kg) and time point (3 hours), value±95% CI", "result": 72.9, "unit": "nM"},
      {"measurement": "half-life", "setting": "[1]; male, Balb/c, mouse, topical or ocular, 10 umol/kg, single dermal, 10 μmol/kg, plasma, read-out: Terminal T1/2", "result": 63.1, "unit": "min"},
      {"measurement": "AUC(0-inf)", "setting": "[1]; [3]", "result": 4.75, "unit": "µM·h"},
      {"measurement": "Cmax", "setting": "[1]; [3]", "result": 908, "unit": "nM"},
      {"measurement": "Tmax", "setting": "[1]; [3]", "result": 3, "unit": "h"},
      {"measurement": "time detectable in plasma after administration", "setting": "[1]; single dermal administration", "result": "≥ 9", "unit": "h"},
      {"measurement": "concentration at 3 h", "setting": "[2]; male, Balb/c, mouse, plasma, topical, 1.03 mg/kg", "result": 110, "unit": "nM"},
      {"measurement": "concentration at 3 h", "setting": "[2]; read-out: Mean Plasma Concentration", "result": 110.19, "unit": "nM"},
      {"measurement": "concentration with statistically significant antiproliferative action", "setting": "human keratinocytes; any contact time (1, 2, 4 h), cell counting after 48 h", "result": 200, "unit": "nM"},
      {"measurement": "antiproliferative activity", "setting": "human keratinocytes; contact 1, 2, 4 h, cell counting after 96 h", "result": "obtained for any tested concentration and any contact time"},
      {"measurement": "IFN-γ secretion in plasma", "setting": "LPS-induced endotoxemia", "result": "significant reduction"},
      {"measurement": "MCP-1 secretion in plasma", "setting": "LPS-induced endotoxemia", "result": "significant reduction"},
      {"measurement": "MIP-α secretion in plasma", "setting": "LPS-induced endotoxemia", "result": "significant reduction"},
      {"measurement": "RANTES secretion in plasma", "setting": "LPS-induced endotoxemia", "result": "significant reduction"},
      {"measurement": "TNF-α secretion in plasma", "setting": "LPS-induced endotoxemia", "result": "significant reduction"}
    ]}
  ]
}
